# Experimental data taken from patent publication US10660333B2, “Substituted 2-heterocyclylimidazolylcarboxamides as pesticides” (BAYER CROPSCIENCE AKTIENGESELLSCHAFT, priority 2016, dated 2020).
# Read-outs that look alike come from different tables or passages of the source.
# Key:
# [1] = log P by HPLC on reversed-phase (C18) columns, OECD Guideline 117; format: physicochemical
# Myzus persicae [2] = test: Myzus persicae - spray test; format: in vivo; details: for pest or weed control at 500 g/ha: Myzus persicae, foliar, 120 h, read-out: efficacy (aphids killed)
# Experimental: Myzus persicae—Spray Test
# To produce a suitable active ingredient formulation, 1 part by weight of active ingredient is dissolved with the specified parts by weight of solvent and made up to the desired concentration with water containing an emulsifier concentration of 1000 ppm. To produce further test concentrations, the formulation is diluted with emulsifier-containing water.
# Discs of Chinese cabbage leaves (Brassica pekinensis) infested by all stages of the green peach aphid (Myzus persicae) are sprayed with an active ingredient formulation of the desired concentration.
# (§1) After 5 days, the efficacy in % is determined. 100% means that all the aphids have been killed; 0% means that no aphids have been killed.
# Myzus persicae [3] = test: Myzus persicae - oral test; format: in vivo; details: for pest or weed control at 4 ppm: Myzus persicae, 120 h, read-out: efficacy (aphids killed)
# Experimental: To produce a suitable active ingredient formulation, 1 part by weight of active ingredient is dissolved with the specified parts by weight of solvent and made up to the desired concentration with water.
# 50 μl of the active ingredient formulation are transferred into microtitre plates and made up to a final volume of 200 μl with 150 μl of IPL41 insect medium (33%+15% sugar). Subsequently, the plates are sealed with parafilm, which a mixed population of green peach aphids (Myzus persicae) within a second microtitre plate is able to puncture and imbibe the solution.
# as §1
# [4] = HPLC RP C18, acidic range pH 2.7, 0.1% formic acid/acetonitrile
# [5] = HPLC RP C18, neutral range pH 7.8, ammonium hydrogencarbonate/acetonitrile
# [6] = 500 g/ha, Chinese cabbage leaf discs, after 5 days
# [7] = reversed-phase (C18) HPLC column, HPLC RP C18, acidic range pH 2.7, 0.1% formic acid/acetonitrile, read-out: logP[a]
# [8] = reversed-phase (C18) HPLC column, HPLC RP C18, neutral range pH 7.8, ammonium hydrogencarbonate/acetonitrile, read-out: logP[n]
"logP[a] [1, 4]","logP[n] [1, 5]",Compound,efficacy (aphids killed) (Myzus persicae [2]; [6]) [%],"efficacy (aphids killed) (Myzus persicae [3]; 4 ppm, oral, after 5 days) [%]",further results
0.45,1.34,CN(C(=O)c1cnc(C2=NOC(c3ccncc3)C2)n1C)c1cccnc1 (stereo not drawn) [Example I-1-44],,,
3.01,3.08,CN(C(=O)c1cnc(C2CC(c3ccc(C(F)(C(F)(F)F)C(F)(F)F)cc3)=NO2)n1C)c1cccnc1 (stereo not drawn) [Example I-1-35],100,90,
2.66,2.75,CN(C(=O)c1cnc(C2CC(c3c(Cl)cc(C(F)(F)F)cc3Cl)=NO2)n1C)c1cccnc1 (stereo not drawn) [Example I-1-34],90,100,
0.53,0.96,CC1=NOC(C)(c2ncc(C(=O)N(C)c3cccnc3)n2C)C1 (stereo not drawn) [Example I-1-31],90,90,
0.78,1.12,CN(C)C(=O)C1CC(c2ncc(C(=O)N(C)c3cccnc3)n2C)=NO1 (stereo not drawn) [Example I-1-39],,,
2.09,2.21,CN(C(=O)c1cnc(C2=NOC(C3CCCC3)C2)n1C)c1cccnc1 (stereo not drawn) [Example I-1-38],,,
1.09,1.46,CN(C(=O)c1cnc(C2=NOC(c3ccccn3)C2)n1C)c1cccnc1 (stereo not drawn) [Example I-1-42],,,
,0.74,CN1CCN=C1c1ncc(C(=O)N(C)c2cccnc2)n1C [Example I-1-46],,,
1.34,1.55,CN(C(=O)c1cnc(C2CC(c3ccccc3C#N)=NO2)n1C)c1cccnc1 (stereo not drawn) [Example I-1-18],90,100,
1.46,1.74,COc1ccc(C2=NOC(c3ncc(C(=O)N(C)c4cccnc4)n3C)C2)cc1 (stereo not drawn) [Example I-1-25],,100,
2.28,2.42,CN(C(=O)c1cnc(C2CC(c3ccc(OC(F)(F)F)cc3)=NO2)n1C)c1cccnc1 (stereo not drawn) [Example I-1-33],90,,
2.49,2.60,CN(C(=O)c1cnc(C2=NOC(c3ccc(C(F)(F)F)cc3)C2)n1C)c1cccnc1 (stereo not drawn) [Example I-1-41],,,
1.42,1.62,CN(C(=O)c1cnc(C2CC(c3ccc(C#N)cc3)=NO2)n1C)c1cccnc1 (stereo not drawn) [Example I-1-20],90,100,
1.65,1.85,CC(C)C1CC(c2ncc(C(=O)N(C)c3cccnc3)n2C)=NO1 (stereo not drawn) [Example I-1-37],,,
1.75,1.95,Cc1ccc(C2=NOC(c3ncc(C(=O)N(C)c4cccnc4)n3C)C2)cc1 (stereo not drawn) [Example I-1-21],100,100,

# Further lines, the compound ahead of its results:
Compound,"logP[a] [1, 4]","logP[n] [1, 5]",efficacy (aphids killed) (Myzus persicae [2]; [6]) [%],"efficacy (aphids killed) (Myzus persicae [3]; 4 ppm, oral, after 5 days) [%]",further results
CN(C(=O)c1cnc(C2CC(c3ccc(Cl)c(Cl)c3)=NO2)n1C)c1cccnc1 (stereo not drawn) [Example I-1-16],2.27,2.48,100,100,
CN(C(=O)c1cnc(C2CC(c3c(Cl)cccc3Cl)=NO2)n1C)c1cccnc1 (stereo not drawn) [Example I-1-15],1.87,2.10,100,100,
"CN(C(=O)c1cnc(I)n1C)c1cccnc1 [VI-1-1, 2-Iodo-N,1-dimethyl-N-(pyridin-3-yl)-1H-imidazole-5-carboxamide]",,,,,"chromatographic logP [1, 7]: 0.66; chromatographic logP [1, 8]: 0.97"
"C=Cc1ncc(C(=O)N(C)c2cccnc2)n1C [VII-1-1, N,1-Dimethyl-N-(pyridin-3-yl)-2-vinyl-1H-imidazole-5-carboxamide]",,,,,"chromatographic logP [1, 8]: 0.82"
"CN(C(=O)c1cnc(C2=NOC(c3ccccc3)C2)n1C)c1cccnc1 (stereo not drawn) [Example I-1-40, N,1-Dimethyl-2-(5-phenyl-4,5-dihydro-1,2-oxazol-3-yl)-N-(pyridin-3-yl)-1H-imidazole-5-carboxamide]",,,,,"chromatographic logP [1, 7]: 1.86; chromatographic logP [1, 8]: 1.97; pest or weed control at 500 g/ha (Myzus persicae [2]; [6]): 90%; pest or weed control at 4 ppm (Myzus persicae [3]; 4 ppm, oral, after 5 days): 90%"
CN(C(=O)c1cnc(C2CC(c3cccc(Cl)c3)=NO2)n1C)c1cccnc1 (stereo not drawn) [Example I-1-10],1.88,2.10,100,100,
"N#Cc1cccc(C=NO)c1 [IX-19, 3-(Hydroxyimino)methylbenzonitrile]",,,,,"chromatographic logP ([1]; HPLC RP C18, acidic range pH 2.7, 0.1% formic acid/acetonitrile, read-out: logP[a]): 1.2"
CN(C(=O)c1cnc(C2CC(c3cc(Cl)cc(Cl)c3)=NO2)n1C)c1cccnc1 (stereo not drawn) [Example I-1-17],2.39,2.61,100,100,
CN(C(=O)c1cnc(C2CC(c3cccc(Cl)c3Cl)=NO2)n1C)c1cccnc1 (stereo not drawn) [Example I-1-12],2.07,2.25,100,100,
"CN(C(=O)c1cnc(C2=CC(=O)OC2)n1C)c1cccnc1 [Example I-1-47, N,1-Dimethyl-2-(5-oxo-2,5-dihydrofuran-3-yl)-N-(pyridin-3-yl)-1H-imidazole-5-carboxamide]",,,,,"chromatographic logP [1, 7]: 0.46; chromatographic logP [1, 8]: 0.72; pest or weed control at 500 g/ha (Myzus persicae [2]; in Brassica rapa): 90%; pest or weed control at 4 ppm (Myzus persicae [3]; po): 100%"
CN(C(=O)c1cnc(C2=NOC(c3cccnc3)C2)n1C)c1cccnc1 (stereo not drawn) [Example I-1-43],0.56,1.35,,,
CN(C(=O)c1cnc(C2CC(c3ccc(Cl)cc3Cl)=NO2)n1C)c1cccnc1 (stereo not drawn) [Example I-1-13],2.23,2.41,100,100,
"CN(C(=O)c1cnc(C=O)n1C)c1cccnc1 [XIII-1-1, 2-Formyl-N,1-dimethyl-N-(pyridin-3-yl)-1H-imidazole-5-carboxamide]",,,,,"chromatographic logP [1, 7]: 0.43; chromatographic logP [1, 8]: 0.6"
CN(C(=O)c1cnc(C2CC(c3ccccc3Cl)=NO2)n1C)c1cccnc1 (stereo not drawn) [Example I-1-9],1.69,1.95,100,100,
"CCOC(=O)C1=NOC(c2ncc(C(=O)N(C)c3cccnc3)n2C)C1 (stereo not drawn) [Example I-1-5, Ethyl 5-{1-methyl-5-[methyl(pyridin-3-yl)carbamoyl]-1H-imidazol-2-yl}-4,5-dihydro-1,2-oxazole-3-carboxylate]",,,,,"chromatographic logP [1, 7]: 1.04; chromatographic logP [1, 8]: 1.32; pest or weed control at 500 g/ha (Myzus persicae [2]; [6]): 100%; pest or weed control at 4 ppm (Myzus persicae [3]; 4 ppm, oral, after 5 days): 100%"
"CN(C(=O)c1cnc(C=NO)n1C)c1cccnc1 [XVIII-1-1, 2-[(Hydroxyimino)methyl]-N,1-dimethyl-N-(pyridin-3-yl)-1H-imidazole-5-carboxamide]",,,,,"chromatographic logP [1, 8]: 0.51"
CN(C(=O)c1cnc(C2CC(c3cccnc3)=NO2)n1C)c1cccnc1 (stereo not drawn) [Example I-1-27],0.64,1.09,90,100,
"CN(C(=O)c1cnc(C2=NCCN2)n1C)c1cccnc1 [Example I-1-45, N,1-Dimethyl-N-(pyridin-3-yl)-4′,5′-dihydro-1H,1′H-2,2′-biimidazole-5-carboxamide]",,,,,"chromatographic logP [1, 8]: 0.54"
CN(C(=O)c1cnc(C2CC(c3cc(Cl)ccc3Cl)=NO2)n1C)c1cccnc1 (stereo not drawn) [Example I-1-14],2.13,2.32,90,100,
"CN(C(=O)c1cnc(C#N)n1C)c1cccnc1 [XXIII-1-1, 2-Cyano-N,1-dimethyl-N-(pyridin-3-yl)-1H-imidazole-5-carboxamide]",,,,,"chromatographic logP [1, 7]: 0.63; chromatographic logP [1, 8]: 0.85"
CN(C)C(=O)C1=NOC(c2ncc(C(=O)N(C)c3cccnc3)n2C)C1 (stereo not drawn) [Example I-1-6],0.77,0.97,100,100,
CN(C(=O)c1cnc(C2CC(c3ccc(Cl)cc3)=NO2)n1C)c1cccnc1 (stereo not drawn) [Example I-1-11],1.97,2.12,100,100,
